Assays:
[1] = target: recombinant poly(ADP-ribose) polymerase 2 (PARP2) (Homo sapiens, UniProt Q9UGN5); assay: PARP2 chemiluminescent assay; format: biochemical; details: PARP2 enzyme activity, chemiluminescence, 40 ng enzyme/well
Method: The solution of recombinant poly(ADP-ribose) polymerase 1 and 2 (PARP1 and PARP2) (40 ng enzyme/well) and the compounds to be tested were mixed, respectively. The solutions were added to a 96-well plate coated with histone mixture, incubated at room temperature for 1 h, then 50 μL 0.3 ng/mL Streptavidin-HRP was added to each well. The plates were incubated for 30 minutes at room temperature. Finally, the plates were treated with streptavidin-HRP followed by addition of the ELISA ECL substrate to produce chemiluminescence that can be measured using a chemiluminescence reader. Inhibition of the tested compound to PARP1/2 enzyme activity was calculated according to the following formula. [formula] IC50 value is obtained by fitting the s-shaped dose response curve equation by using XL Fit software.

MDA-MB-436 cells = assay: Growth inhibition assay against BRCA mutant human breast cancer MDA-MB-436 cell line (CCK-8, 7 days); format: cell-based; details: 168 h, MDA-MB-436, 7 days, read-out: IC50 (nM), proliferation of human breast cancer cells MDA-MB-436
Method: The cells were cultured in complete medium (DMEM medium+10% FBS+Insulin+glutathione). When the confluence reached about 80%, cells were digested and gently dispensed from the bottom of the dish with a 1 mL pipette. Cell suspension was collected and centrifuged at 500 rpm for 3 min. The supernatant was discarded, and the cell pellet were re-suspended in complete medium. The cells were seeded into a culture dish at an appropriate proportion, and then cultured in a 5% CO2 incubator at 37° C. The assay was carried out when the cells were in optimum condition and the confluence was reached 80%. Cells in the logarithmic growth phase were taken to centrifugate, and the culture supernatant was removed. The cells were resuspended in refresh complete medium and counted. The resuspended cells were seeded at 3000/well in a 96-well plate and incubated at 37° C., 5% CO2 incubator overnight. […] The solution was mixed by oscillation. 0.10% DMSO was used as the control.
The next day, the 96-well plate inoculated with cells was taken out from the incubator, and the culture supernatant was removed. Then fresh medium of 195 uL/well and 5 μL/well of 40× test compound solution as mentioned above were added into the 96 well plate, respectively. Finally, the plate was incubated for 7 days in a 37° C. 5% CO2 incubator. The medium containing compound was changed on the fourth day. After 7 days, 20 μL of CCK-8 was added to each well and shaken gently, then was cultured for 4 hours. The plate was shaken for 5 min after incubation, the absorbance values of 450 nm or 650 nm wavelengths were recorded respectively (OD=absorbance value of 450 nm−absorbance value of 650 nm) by using the multifunction readout instrument.
Data were analyzed by software GraphPad Prism 6.0. The inhibitory activity of compounds on cell proliferation was plotted using cell survival rate against the compound concentration as coordinates. Cell survival rate %=(ODcompound−ODbackground)/(ODDMSO−ODbackground)×100.
Table 2 summarizes the inhibitory effect data (IC50) of the compounds on the proliferation of human breast cancer cells MDA-MB-436.

PDE3A = target: T1, PDE3A (Homo sapiens, UniProt Q14432); assay: PDE3A fluorescence polarization (FP) assay; format: biochemical; details: 2 nM PDE3A, 0.2 μM FAM-cAMP, read-out: IC50 (μM), PDE3A enzyme activity
T1 construct: purchased Sino Biological 11908-H20B1
T1 sequence (Q14432 669-1141 limits assumed): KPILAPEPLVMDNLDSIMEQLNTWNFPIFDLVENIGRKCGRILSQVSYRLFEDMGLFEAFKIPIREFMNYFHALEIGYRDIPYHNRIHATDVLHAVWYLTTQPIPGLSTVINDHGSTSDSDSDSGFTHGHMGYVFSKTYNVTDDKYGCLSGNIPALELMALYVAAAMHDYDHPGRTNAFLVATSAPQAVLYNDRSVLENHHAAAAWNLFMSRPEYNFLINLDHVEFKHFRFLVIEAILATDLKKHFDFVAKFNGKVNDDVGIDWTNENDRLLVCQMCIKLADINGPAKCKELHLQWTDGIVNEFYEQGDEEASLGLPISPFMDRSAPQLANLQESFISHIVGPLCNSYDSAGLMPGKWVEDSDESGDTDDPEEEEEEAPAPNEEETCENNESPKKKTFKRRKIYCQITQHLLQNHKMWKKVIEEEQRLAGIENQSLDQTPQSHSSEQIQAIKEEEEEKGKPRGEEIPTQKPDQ
Method: A PDE3A fluorescence polarization (FP) assay in a multi-step format was performed using black, round bottom 384-well plates (Corning, 4514). The testing compounds were serially diluted from stock solutions to 11 concentrations with a 3-fold dilution factor using DMSO. Fifty nL of compound dilutions was mixed with 5 μL of reaction buffer (10 mM Tris-HCl, pH 7.2, 10 mM MgCl2, 0.05% NaN3, 0.1% phosphate-free BSA) containing 0.2 μM FAM-cAMP (BPS, 60200) and 2 nM PDE3A (Sino Biological, 11908-H20B1) enzyme, and incubated for 60 min at 25° C. Afterwards, 15 μL binding agent mixture (Molecular Devices, R8124) was added to each well and the plate was incubated for 60 min at 25° C. The plate was loaded to a BMG PHERAstar FSX to read Fluorescence Polarization (FP) values at a setting of: Ex: 485 nm and Em: 520 nm. Emission light intensity with polarizers parallel (Em|) and emission light intensity with polarizers perpendicular (Em⊥) were recorded. The Polarization (mP) values were calculated using the following formula: mP=(SignalEm|−SignalEm⊥)/(SignalEm|+SignalEm⊥).
Data analysis: • 1) The inhibition % of a compound dose is calculated as:
[formula] • wherein mPMin and mPMax refer to the polarization readings in the condition of substrate only and substrate+enzyme, respectively. • 2) The IC50 values were calculated from non-linear curve fitting using following regression equation using a commercial curve fitting software GraphPad Prism 9.2.0.
wherein X refers to Log of compound concentration and Y refers to % Inhibition.
Table 3 summarize the inhibitory effects of compounds on PDE3A enzyme activity (IC50).

Sequence of recombinant poly(ADP-ribose) polymerase 2 (PARP2) (Q9UGN5 whole entry): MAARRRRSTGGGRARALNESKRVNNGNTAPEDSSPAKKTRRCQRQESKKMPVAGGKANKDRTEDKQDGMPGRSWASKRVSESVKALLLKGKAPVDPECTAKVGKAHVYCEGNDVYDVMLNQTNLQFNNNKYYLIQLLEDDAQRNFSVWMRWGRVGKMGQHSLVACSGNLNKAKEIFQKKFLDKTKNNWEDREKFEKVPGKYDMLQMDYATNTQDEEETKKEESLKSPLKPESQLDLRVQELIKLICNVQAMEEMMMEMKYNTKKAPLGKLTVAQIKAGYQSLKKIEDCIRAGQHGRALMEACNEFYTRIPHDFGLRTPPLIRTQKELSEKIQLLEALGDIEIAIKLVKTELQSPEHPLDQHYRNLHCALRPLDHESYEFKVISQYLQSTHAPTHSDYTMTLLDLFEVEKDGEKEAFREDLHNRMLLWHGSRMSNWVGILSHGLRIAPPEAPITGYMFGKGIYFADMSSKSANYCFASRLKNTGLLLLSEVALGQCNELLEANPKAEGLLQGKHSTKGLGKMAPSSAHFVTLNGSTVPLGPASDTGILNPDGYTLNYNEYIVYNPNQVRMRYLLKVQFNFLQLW

Compound	IC50 [1] [nM]	IC50 (MDA-MB-436 cells) [nM]	IC50 (PDE3A) [µM]
CNC(=O)c1ccc(-c2nc3c([nH]2)CN(Cc2ccc4c([nH]c(=O)c5c(F)cnn54)c2F)C3)cn1 [Example 43, 5-(5-((3,6-difluoro-4-oxo-4,5-dihydropyrazolo[1,5-a]quinoxalin-7-yl)methyl)-1,4,5,6-tetrahydropyrrolo[3,4-d]imidazol-2-yl)-N-methylpicolinamide]	5.18	2.84	–
CNC(=O)c1ccc(-n2cc3c(n2)CN(Cc2ccc4c([nH]c(=O)c5c(F)cnn54)c2F)C3)c(C)n1 [Example 14, 5-(5-((3,6-difluoro-4-oxo-4,5-dihydropyrazolo[1,5-a]quinoxalin-7-yl)methyl)-5,6-dihydropyrrolo[3,4-c]pyrazol-2(4H)-yl)-N,6-dimethylpicolinamide]	–	5.06	> 30
CNC(=O)c1ccc(N2CC3=C(CN(Cc4ccc5c([nH]c(=O)c6c(F)cnn65)c4F)C3)C2)c(F)n1 [Example 58]	–	2.97	2.41
CNC(=O)c1ccc(-n2cc3c(n2)CN(Cc2ccc4c([nH]c(=O)c5c(C)cnn54)c2F)C3)cn1 [Example 1-1, 5-(5-((6-fluoro-3-methyl-4-oxo-4,5-dihydropyrazolo[1,5-a]quinoxalin-7-yl)methyl)-5,6-dihydropyrrolo[3,4-c]pyrazol-2(4H)-yl)-N-methylpicolinamide]	–	2.13	> 30
CNC(=O)c1ccc(-n2cc3c(c2)CN(Cc2ccc4c([nH]c(=O)c5c(C)cnn54)c2F)C3)c(F)n1 [Example 63, 6-fluoro-5-(5-((6-fluoro-3-methyl-4-oxo-4,5-dihydropyrazolo[1,5-a]quinoxalin-7-yl)methyl)-5,6-dihydropyrrolo[3,4-c]pyrrol-2(4H)-yl)-N-methylpicolinamide]	> 10000	0.85	–
CNC(=O)c1ccc(-n2cc3c(n2)CN(Cc2ccc4c([nH]c(=O)c5cc(F)nn54)c2F)C3)cn1 [Example 27, 5-(5-((2,6-difluoro-4-oxo-4,5-dihydropyrazolo[1,5-a]quinoxalin-7-yl)methyl)-5,6-dihydropyrrolo[3,4-c]pyrazol-2(4H)-yl)-N-methylpicolinamide]	–	1.44	> 30
CNC(=O)c1ccc(-c2nc3c([nH]2)CN(Cc2ccc4c([nH]c(=O)c5c(C)cnn54)c2F)C3)cn1 [Example 34, 5-(5-((6-fluoro-3-methyl-4-oxo-4,5-dihydropyrazolo[1,5-a]quinoxalin-7-yl)methyl)-1,4,5,6-tetrahydropyrrolo[3,4-d]imidazol-2-yl)-N-methylpicolinamide]	40	3.33	–
CNC(=O)c1ccc(-c2nc3c(o2)CN(Cc2ccc4c([nH]c(=O)c5c(F)cnn54)c2F)C3)cn1 [Example 41, 5-(5-((3,6-difluoro-4-oxo-4,5-dihydropyrazolo[1,5-a]quinoxalin-7-yl)methyl)-5,6-dihydro-4H-pyrrolo[3,4-d]oxazol-2-yl)-N-methylpicolinamide]	61.1	1.6	–
CCNC(=O)c1ccc(-n2cc3c(n2)CN(Cc2ccc4c([nH]c(=O)c5occc54)c2F)C3)cn1 [Example 53, N-ethyl-5-(5-((6-fluoro-4-oxo-4,5-dihydrofuro[2,3-c]quinolin-7-yl)methyl)-5,6-dihydropyrrolo[3,4-c]pyrazol-2(4H)-yl)picolinamide]	157	1.21	–
CNC(=O)c1ccc(-n2cc3c(n2)CCN(Cc2ccc4c([nH]c(=O)c5c(C)cnn54)c2F)C3)c(C)n1 [Example 11, 5-(5-((6-fluoro-3-methyl-4-oxo-4,5-dihydropyrazolo[1,5-a]quinoxalin-7-yl)methyl)-4,5,6,7-tetrahydro-2H-pyrazolo[4,3-c]pyridin-2-yl)-N,6-dimethylpicolinamide]	–	> 100	> 30
CNC(=O)c1ccc(-n2ncc3c2CCN(Cc2ccc4c([nH]c(=O)c5c(C)cnn54)c2F)C3)cn1 [Example 10-2, 5-(5-((6-fluoro-3-methyl-4-oxo-4,5-dihydropyrazolo[1,5-a]quinoxalin-7-yl)methyl)-4,5,6,7-tetrahydro-1H-pyrazolo[4,3-c]pyridin-1-yl)-N-methylpicolinamide]	> 10000	> 100	–
Cc1cnn2c1c(=O)[nH]c1c(F)c(CN3Cc4cn(-c5ccc(C(=O)NC6CC6)nc5)nc4C3)ccc12 [Example 8, 5-(5-((6-fluoro-3-methyl-4-oxo-4,5-dihydropyrazolo[1,5-a]quinoxalin-7-yl)methyl)-5,6-dihydropyrrolo[3,4-c]pyrazol-2(4H)-yl)-N-cyclopropylpicolinamide]	–	4.11	> 30
CNC(=O)c1ccc(-n2cc3c(c2)CN(Cc2ccc4c([nH]c(=O)c5c(C)cnn54)c2F)C3)cn1 [Example 39, 5-(5-((6-fluoro-3-methyl-4-oxo-4,5-dihydropyrazolo[1,5-a]quinoxalin-7-yl)methyl)-5,6-dihydropyrrolo[3,4-c]pyrrol-2(4H)-yl)-N-methylpicolinamide]	–	1.82	> 30
CNC(=O)c1ccc(-n2cc3c(n2)CCN(Cc2ccc4c([nH]c(=O)c5c(C)cnn54)c2F)C3)c(F)n1 [Example 12, 5-(5-((6-fluoro-3-methyl-4-oxo-4,5-dihydropyrazolo[1,5-a]quinoxalin-7-yl)methyl)-4,5,6,7-tetrahydro-2H-pyrazolo[4,3-c]pyridin-2-yl)-6-fluoro-N-methylpicolinamide]	–	> 100	> 30
CCNC(=O)c1ccc(-n2cc3c(n2)CN(Cc2ccc4c([nH]c(=O)n5cc(C)nc45)c2F)C3)c(F)n1 [Example 52, N-ethyl-6-fluoro-5-(5-((7-fluoro-2-methyl-5-oxo-5,6-dihydroimidazo[1,2-c]quinazolin-8-yl)methyl)-5,6-dihydropyrrolo[3,4-c]pyrazol-2(4H)-yl)picolinamide]	–	0.92	> 30
CNC(=O)c1ccc(-n2cc3c(n2)CCN(Cc2ccc4c([nH]c(=O)c5c(C)cnn54)c2F)C3)cn1 [Example 10-1, 5-(5-((6-fluoro-3-methyl-4-oxo-4,5-dihydropyrazolo[1,5-a]quinoxalin-7-yl)methyl)-4,5,6,7-tetrahydro-2H-pyrazolo[4,3-c]pyridin-2-yl)-N-methylpicolinamide]	> 10000	> 100	–
CCNC(=O)c1ccc(-n2cc3c(n2)CN(Cc2ccc4c([nH]c(=O)n5cc(C)nc45)c2F)C3)cn1 [Example 50, N-ethyl-5-(5-((7-fluoro-2-methyl-5-oxo-5,6-dihydroimidazo[1,2-c]quinazolin-8-yl)methyl)-5,6-dihydropyrrolo[3,4-c]pyrazol-2(4H)-yl)picolinamide]	180	1.01	–
O=C(NC1CC1)c1ccc(-n2cc3c(n2)CN(Cc2ccc4c([nH]c(=O)c5c(F)cnn54)c2F)C3)c(F)n1 [Example 21, N-cyclopropyl-5-(5-((3,6-difluoro-4-oxo-4,5-dihydropyrazolo[1,5-a]quinoxalin-7-yl)methyl)-5,6-dihydropyrrolo[3,4-c]pyrazol-2(4H)-yl)-6-fluoropicolinamide]	> 10000	2.14	–

— patent publication US20260265256A1 (IMPACT THERAPEUTICS (SHANGHAI), INC., priority 2023, published 2026)
